Data taken from patent publication US12686690B2, “Macrocyclic urea orexin receptor agonists” (Merck Sharp & Dohme LLC, priority 2020, dated 2026).

Molecular target: T1, hOX2R (Homo sapiens, UniProt O43614)
T1 construct: expressed in transfected cells; host or cells: CHO cells (G418 selection)
T1 sequence (O43614 1-444): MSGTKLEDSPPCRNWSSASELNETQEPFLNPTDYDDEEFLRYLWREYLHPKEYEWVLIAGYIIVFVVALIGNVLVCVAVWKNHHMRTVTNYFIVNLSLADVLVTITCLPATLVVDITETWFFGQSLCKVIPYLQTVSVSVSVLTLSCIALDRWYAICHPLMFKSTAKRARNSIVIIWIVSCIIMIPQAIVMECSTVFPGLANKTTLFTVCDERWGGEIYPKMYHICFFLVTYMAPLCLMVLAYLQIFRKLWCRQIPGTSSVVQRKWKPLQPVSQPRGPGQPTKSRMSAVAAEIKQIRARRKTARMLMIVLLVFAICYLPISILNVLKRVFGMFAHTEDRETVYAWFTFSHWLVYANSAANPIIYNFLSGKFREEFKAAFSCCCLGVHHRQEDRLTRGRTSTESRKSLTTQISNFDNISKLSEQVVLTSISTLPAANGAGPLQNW
Test: hOX2R IPone assay (orexin receptor agonism)
Assay type: cell-based
Details: IPone readout; for hOX2R_Ipone max %act: maximal activation; for EC50: orexin receptor agonist, read-out: hOX2R_IPone EC50

Structure (SMILES)	hOX2R_Ipone max %act	EC50
CCN1C(=O)N[C@@H](CCC(F)(F)F)CCCCCOc2nc(cn3ccnc23)-c2cc(cc(C)n2)[C@H]1C [Example 118B, (12R,16R)-13-ethyl-9,12-dimethyl-16-(3,3,3-trifluoropropyl)-12,13,16,17,18,19,20,21-octahydro-6,23-(azeno)-11,7-(metheno)imidazo[2,1-c][1,4,8,13,15]oxatetraazacyclohenicosin-14(15H)-one]	99.7%	2.6 nM
CCN1C(=O)NC(CC(F)(F)CC)CCOCCOc2cn3ncnc3c(n2)-c2cc(ncc2C)C1C [Example 122, (3R,E)-7-(2,2-difluorobutyl)-4-ethyl-25,3-dimethyl-10,13-dioxa-4,6-diaza-1(6,8)-[1,2,4]triazolo[1,5-a]pyrazina-2(4,2)-pyridinacyclotridecaphan-5-one]	104.4%	36.4 nM
CCN1C(=O)N[C@@H](CCC(F)(F)F)CCCCOc2nc(cn3ccnc23)-c2ccnc(c2)[C@H]1C [Example 29B, (12R,16R)-13-ethyl-12-methyl-16-(3,3,3-trifluoropropyl)-12,13,15,16,17, 18,19,20-octahydro-14H-6,22-(azeno)-11,7-(metheno) imidazo[2,1-c][1,4,10,13,15] oxatetraazacyclo-icosin-14-one]	99.7%	4.5 nM
CCN1C(=O)N[C@@H](CCC(F)(F)F)CCCCCOc2nc(cn3ccnc23)C2=CN=C(S2)C1C (stereo partly drawn) [Example 95, (15R)-12-ethyl-11-methyl-15-(3,3,3-trifluoropropyl)-11,12,15,16,17,18,19, 20-octahydro-6,22-(azeno)-7,10-epithioimidazo[2,1-c][1,4,9,12,14]oxatet-raazacycloicosin-13(14H)-one]	99.78%	25.4 nM
CCN1C(=O)NC(CC(C)C)CCCCCOc2nc(cn3ccnc23)-c2cc(ncc2OC)[C@H]1C (single isomer, unassigned) [Example 53B]	102.3%	0.9 nM
CCN1C(=O)N[C@@H](CCC(F)(F)F)CCCCOc2nc(cn3cc(C)nc23)-c2cc(ncc2OC)C1C(F)(F)F (single isomer, unassigned) [Example 36A]	101%	64 nM
CCN1C(=O)N[C@@H](CCC(F)(F)F)CCCCCOc2nc(cn3ncnc23)-c2nc(ncc2OC)[C@H]1C [Example 147, (3R,7R,E)-4-ethyl-25-methoxy-3-methyl-7-(3,3,3-trifluoropropyl)-13-oxa-4,6-diaza-1(6,8)-[1,2,4]triazolo[1,5-a]pyrazina-2(4,2)-pyrimidinacyclotridecaphan-5-one]	102.4%	3.69 nM
CCN1C(=O)NCCOCCCOc2nc(cn3ccnc23)-c2cc(ncc2OC)[C@H]1C [Example 8, (12R)-13-ethyl-8-methoxy-12-methyl-12,13,16,17,20,21-hexahydro-19H-6,23-(azeno)-11,7-(metheno)imidazo[1,2-o][1,18,4,6,9,15]dioxatetra-azacyclohenicosin-14(15H)-one]	100.2%	13.6 nM
CCN1C(=O)NC(CC2(C(F)F)CC2)CCCCCOc2nc(cn3ccnc23)-c2cc(ncc2OC)[C@H]1C (single isomer, unassigned) [Example 70B]	99.8%	1.1 nM
CCN1C(=O)NC(CC2(C)CC2)CCCCCOc2nc(nn3ccnc23)-c2cc(ncc2OC)[C@H]1C (stereo partly drawn) [Example 206, (3R,E)-4-ethyl-25-methoxy-3-methyl-7-((1-methylcyclo-propyl)methyl)-13-oxa-4,6-diaza-1(2,4)-imidazo[2,1-f] [1,2,4]triazina-2(4,2)-pyridina-cyclotridecaphan-5-one]	107.8%	2.07 nM
CCN1C(=O)N[C@@H](CCC(F)(F)F)CCCCCOc2nc(cn3ccnc23)-c2nc(ccc2OC)[C@H]1C [Example 97, (12R,16R)-13-ethyl-8-methoxy-12-methyl-16-(3,3,3-trifluoropropyl)-12,13,16,17,18,19,20, 21-octahydro-6,23:11,7-di(azeno) imidazo[2,1-c][1,4,13,15]oxatriaza-cyclohenicosin-14(15H)-one]	102%	0.6 nM
CCN1C(=O)N[C@@H](CCC(F)(F)F)CCC(O)CCOc2nc(cn3ccnc23)-c2cc(cnc2C)[C@H]1C (single isomer, unassigned) [Example 137]	100.7%	4.66 nM
CCN1C(=O)NC(C(C)(C)C)CCCCCOc2nc(cn3ccnc23)-c2cc(ncc2OC)[C@H]1C (single isomer, unassigned) [Example 63A]	98.43%	315 nM
CCN1C(=O)NC(CC2CC(F)(F)C2)CCCCCOc2nc(cn3ccnc23)-c2cc(ncc2OC)[C@H]1C (single isomer, unassigned) [Example 69A]	99.7%	6.6 nM
CCN1C(=O)N[C@@H](CCC(F)(F)F)CCCCCOc2nc(cn3ccnc23)-c2cc(C)nc(c2)[C@@H]1C [Example 107A, (12S,16R)-13-ethyl-9,12-dimethyl-16-(3,3,3-trifluoropropyl)-12,13,16,17,18,19,20, 21-octahydro-6,23-(azeno)-11,7-(metheno)imidazo[2,1-c][1,4,10,13,15] oxatetraazacycloheni-cosin-14(15H)-one]	92.7%	166 nM
CCN1C(=O)N[C@@H](CCC(F)(F)F)CCCCCOc2cc(cc3ccnn23)-c2nc(cnc2OC)C1C (single isomer, unassigned) [Example 80B]	99.8%	2.9 nM
CCN1C(=O)NC(CC(O)C(F)(F)F)CCCCCOc2cn3ncnc3c(n2)-c2cc(ncc2OC)C1C [Example 131, (3R,7R,E)-4-ethyl-25-methoxy-3-methyl-7-((S)-3,3,3-trifluoro-2-hydroxypropyl)-13-oxa-4,6-diaza-1(6,8)-[1,2,4]triazolo[1,5-a]pyrazina-2(4,2)-pyridinacyclotridecaphan-5-one]	102.2%	0.77 nM
CCN1C(=O)NC(CC2CCOC2)CCCCCOc2nc(cn3ccnc23)-c2cc(ncc2OC)[C@H]1C (single isomer, unassigned) [Example 67A]	99.8%	9.6 nM
CCN1C(=O)N[C@@H](CCC(F)(F)F)CCCCCOc2nc(nc3ccnn23)-c2cc(ncc2OC)[C@H]1C [Example 98, (11R,15R)-12-ethyl-7-methoxy-11-methyl-15-(3,3,3-trifluoropropyl)-11,12,15,16,17,18,19, 20-octahydro-5,22-(azeno)-10,6-(metheno)pyrazolo[1,5-c][1,3,5,10,13,15] oxapentaazacycloheni-cosin-13(14H)-one]	101.2%	8.6 nM

The next lines start with the values.

hOX2R_Ipone max %act	EC50	Structure (SMILES)
98.9%	0.85 nM	CCN1C(=O)NC(CCOC(F)F)CCCCCOc2nc(cn3ccnc23)-c2cc(ncc2OC)[C@H]1C (stereo partly drawn) [Example 182, (3R,E)-7-(2-(difluoromethoxy)ethyl)-4-ethyl-25-methoxy-3-methyl-13-oxa-4,6-diaza-1(6,8)-imidazo[1,2-a]pyrazina-2(4,2)-pyridinacyclotridecaphan-5-one]
93.31%	170 nM	CCN1C(=O)N[C@@H](CCC(F)(F)F)CCS(=O)(=O)CCOc2nc(cn3ncnc23)-c2cc(ncc2OC)[C@H]1C [Example 135, (3R,7S,E)-4-ethyl-25-methoxy-3-methyl-7-(3,3,3-trifluoropropyl)-13-oxa-10-thia-4,6-diaza-1(6,8)-[1,2,4]triazolo[1,5-a]pyrazina-2(4,2)-pyridinacyclotridecaphan-5-one 10,10-dioxide]
96.6%	250 nM	CCN1C(=O)NCC(C(F)(F)F)N(C)CCOc2nc(cn3ccnc23)-c2cccc(c2)[C@H]1C (single isomer, unassigned) [Example 25A]
102.9%	4.98 nM	CCN1C(=O)NC(C(O)CC(F)(F)F)CCCCCOc2cn3ncnc3c(n2)-c2cc(ncc2OC)C1C [Example 132, (3R,7R,E)-4-ethyl-25-methoxy-3-methyl-7-((R)-3,3,3-trifluoro-1-hydroxypropyl)-13-oxa-4,6-diaza-1(6,8)-[1,2,4]triazolo[1,5-a]pyrazina-2(4,2)-pyridinacyclotridecaphan-5-one]
100.5%	5.1 nM	CCN1C(=O)NCCCCCCOc2nc(cn3ccnc23)-c2cc(ncc2OC)[C@H]1C [Example 85, (12R)-13-ethyl-8-methoxy-12-methyl-12,13,16,17,18,19,20, 21-octahydro-6,23-(azeno)-11,7-(metheno)imidazo[2,1-c][1,4,10,13,15] oxatetraazacycloheni-cosin-14(15H)-one]
103.1%	0.58 nM	CCN1C(=O)NC(CCC(F)(F)F)CCCCCOc2nc(cn3ccnc23)-c2cc(ncc2Cl)[C@H]1C (stereo partly drawn) [Example 198, (3R,E)-25-chloro-4-ethyl-3-methyl-7-(3,3,3-trifluoropropyl)-13-oxa-4,6-diaza-1(6,8)-imidazo[1,2-a]pyrazina-2(4,2)-pyridinacyclotri-decaphan-5-one]
73.0%	1360 nM	CCN1C(=O)N[C@@H](CCC(F)(F)F)CCCCCOc2nc(cn3ccnc23)-c2nc(co2)C1C (single isomer, unassigned) [Example 105A]
99.7%	8.6 nM	CCN1C(=O)NC(CCC(F)(F)F)C(C)CCCOc2nc(cn3ccnc23)-c2cccc(c2)[C@H]1C (single isomer, unassigned) [Example 42C]
